Results reported in PubChem BioAssay (NCI).
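Five concentrations, 48 hours, 96-well plates. GI50 is the concentration that inhibits growth by half. TGI: total growth inhibition.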

How the values were obtained:
Assay in all cases: inhibition of tumour cell growth, NCI panel, 48 h
CCRF-CEM leukemia = tested on: CCRF-CEM leukemia
DU-145 prostate = tested on: DU-145 prostate
MCF7 breast = tested on: MCF7 breast
MOLT-4 leukemia = tested on: MOLT-4 leukemia
NCI-H522 lung = tested on: NCI-H522 lung
NCI/ADR-RES ovarian = tested on: NCI/ADR-RES ovarian
PC-3 prostate = tested on: PC-3 prostate
SF-295 CNS = tested on: SF-295 CNS
SNB-19 CNS = tested on: SNB-19 CNS
RPMI-8226 leukemia = tested on: RPMI-8226 leukemia

| SMILES | TGI (CCRF-CEM leukemia) | TGI (DU-145 prostate) | TGI (MCF7 breast) | TGI (MOLT-4 leukemia) | TGI (NCI-H522 lung) | TGI (NCI/ADR-RES ovarian) | TGI (PC-3 prostate) | TGI (SF-295 CNS) | TGI (SNB-19 CNS) | TGI (RPMI-8226 leukemia) | GI50 (CCRF-CEM leukemia) | GI50 (DU-145 prostate) | GI50 (MOLT-4 leukemia) | GI50 (NCI-H522 lung) | GI50 (NCI/ADR-RES ovarian) | GI50 (PC-3 prostate) | GI50 (RPMI-8226 leukemia) | GI50 (SF-295 CNS) |
| --- | --- | --- | --- | --- | --- | --- | --- | --- | --- | --- | --- | --- | --- | --- | --- | --- | --- | --- |
| O=C(Cn1nc(Br)c(Br)c1Br)c1ccccc1 | 23 µM | > 100 µM | 83.6 µM | 12.3 µM | 83.6 µM | 93.1 µM | > 100 µM | 91.5 µM | > 100 µM |  |  |  |  |  |  |  |  |  |
| COc1cc(OC)c2c(c1OC)OCC(Cc1ccc(O)cc1)C2=O (stereo not given) | > 25 µM | > 25 µM |  | > 25 µM | > 25 µM | > 25 µM | > 25 µM | > 25 µM | > 25 µM | > 25 µM |  |  |  |  |  |  |  |  |
| CC(C)(C)c1ccc(CN2CCN(C(c3ccccc3)c3ccc(Cl)cc3)CC2)cc1 (stereo not given) |  | > 100 µM | > 100 µM | > 100 µM | 85.1 µM | > 100 µM | > 100 µM | > 100 µM | > 100 µM | > 100 µM |  |  |  |  |  |  |  |  |
| CC1CCCC2=C1C(c1ccc(Cl)cc1)n1c(s/c(=C\c3ccc(Cl)cc3)c1=O)=N2 (stereo not given) | > 100 µM | > 100 µM | > 100 µM |  |  |  | > 100 µM |  | > 100 µM | > 100 µM |  |  |  |  |  |  |  |  |
| NNC(=O)CNC(=O)CSc1nnc(COc2ccc(Cl)cc2)n1-c1ccccc1 | > 100 µM | > 100 µM | > 100 µM | > 100 µM | > 100 µM | > 100 µM | > 100 µM | > 100 µM | > 100 µM |  |  |  |  |  |  |  |  |  |
| CC[C@@]1(O)C(=O)OCc2c1cc1n(c2=O)Cc2c-1nc1ccccc1c2CC[Si](C)(C)C |  | > 100 µM | > 100 µM |  | 1.55 µM | > 100 µM | > 56.9 µM | 0.0544 µM | > 100 µM | 0.834 µM |  |  |  |  |  |  |  |  |
| CC(=O)C1=C(N=[N+]=[N-])c2cccc3cccc(c23)C1=O | 25.6 µM |  | 64.6 µM | 33.2 µM | 29.3 µM | 70.9 µM | 53.2 µM | 61.7 µM | 91.7 µM | 42.8 µM |  |  |  |  |  |  |  |  |
| CC(C)OP(=O)(CN(C)/C(F)=N\C(F)(F)F)OC(C)C | > 100 µM | > 100 µM | > 100 µM | > 100 µM | > 100 µM | > 100 µM | > 100 µM | > 100 µM | > 100 µM |  |  |  |  |  |  |  |  |  |
| CCOP(=O)(/C=C\n1cnc2c(=O)n(C(C)=O)c(N)nc21)OCC | > 100 µM | > 100 µM | > 100 µM | > 100 µM |  | > 100 µM | > 100 µM | > 100 µM | > 100 µM | > 100 µM |  |  |  |  |  |  |  |  |
| CC(=O)c1ccc(Oc2ccc(/C(C)=N\N=C(N)N)cc2)cc1 | 10.4 µM |  |  | 12.2 µM | 4.04 µM |  |  | 6.18 µM | 22.5 µM | 8.7 µM |  |  |  |  |  |  |  |  |
| O=c1[nH]c2ccc(CC(=S)N3CCOCC3)cc2s1 | > 100 µM | > 100 µM | > 100 µM | > 100 µM |  | > 100 µM | > 100 µM | > 100 µM | > 100 µM | > 100 µM |  |  |  |  |  |  |  |  |
| O=C(NO)c1coc2ccccc2c1=O | > 100 µM |  |  | > 100 µM | > 100 µM |  |  | > 100 µM | > 100 µM | > 100 µM |  |  |  |  |  |  |  |  |
| COP(C)(=O)/C(Cc1ccccc1)=N\O (stereo not given) | > 100 µM | > 100 µM | > 100 µM | > 100 µM |  | > 100 µM | > 100 µM | > 100 µM | > 100 µM | > 100 µM |  |  |  |  |  |  |  |  |
| Cc1csc2nc(-c3ccc([N+](=O)[O-])cc3)c(/C=N/N=C(N)N)n12 | 4.11 µM | 4.3 µM |  |  | 3.08 µM | > 50.8 µM | 3.25 µM | 3.24 µM | 4.18 µM | 4.12 µM |  |  |  |  |  |  |  |  |
| CC1(c2ccc(Cl)cc2)CC(c2ccc(Cl)cc2)=C(C#N)C(=C(C#N)C#N)N1 (stereo not given) | > 100 µM | 28.2 µM | 49.8 µM | 60.3 µM |  | 46.5 µM | 31.9 µM | 32.6 µM | 39.6 µM | > 100 µM |  |  |  |  |  |  |  |  |
| CCOc1ccc2c(c1)/C(=C(\C(Cl)=C(Cl)Cl)[N+](=O)[O-])N2 | > 100 µM | > 100 µM | > 100 µM | > 100 µM |  | > 100 µM | > 100 µM | > 100 µM | > 100 µM | > 100 µM |  |  |  |  |  |  |  |  |
| c1ccc(C2SCC3=Nc4ccccc4CN32)cc1 (stereo not given) | > 100 µM | > 100 µM | > 100 µM | > 100 µM |  | 48 µM | > 100 µM | 70.8 µM | 57.8 µM | > 100 µM |  |  |  |  |  |  |  |  |
| O=C(O)CSc1cc(-c2ccccc2)nc2ccccc12 |  | > 100 µM |  | > 100 µM | 70.9 µM | > 100 µM | > 100 µM | > 100 µM | > 100 µM |  |  |  |  |  |  |  |  |  |
| CC(=O)O[C@H]1CC[C@]2(C)[C@H]3CC[C@@H]4[C@H]5[C@H](C(C)C)CC[C@]5(C(=O)OCC(CO)(CO)N=C(N)N)CC[C@@]4(C)[C@]3(C)CC[C@H]2C1(C)C | 5.51 µM | 3.2 µM |  | 4.83 µM | 3.16 µM | 5.17 µM | 3.09 µM | 3.79 µM |  | 4.81 µM | 2.24 µM | 1.7 µM | 2.1 µM | 1.6 µM | 2.23 µM | 1.59 µM | 2.07 µM | 1.86 µM |
| CC(=O)[O-].CC(=O)[O-].O=C(N/N=C/c1cc(Cl)cc(Cl)c1[OH2+])c1ccncc1.[Co+2] | > 100 µM |  |  | > 100 µM | > 100 µM |  |  | > 100 µM | > 100 µM | > 100 µM |  |  |  |  |  |  |  |  |
| CC[N+]1(C)CCC(O)(c2ccc(Cl)cc2)C(C(=O)c2ccc(Cl)cc2)C1 (stereo not given) | 19.7 µM | 34.4 µM | 2.71 µM | 41.2 µM | 3.51 µM | 57.1 µM | 33 µM |  | 31.8 µM |  |  |  |  |  |  |  |  |  |
| Cc1nc2c(o1)C(=O)c1ccccc1/C2=N/c1ccccn1 | 65.7 µM |  | 33.9 µM | 43.2 µM | 35.9 µM | 56.9 µM | > 100 µM | > 100 µM | 28.3 µM | > 100 µM |  |  |  |  |  |  |  |  |
| Cc1cc2[nH]c3c(C#N)c(-c4ccccc4)c(N=Nc4cccc(C(F)(F)F)c4)c(=O)n3c2cc1C | > 100 µM |  | > 100 µM |  | 69.4 µM | > 100 µM | > 100 µM | > 100 µM | > 100 µM | > 100 µM |  |  |  |  |  |  |  |  |
| CCOP(=O)(Nc1ccc(-c2ccccc2)cc1)OCC |  | > 100 µM | > 100 µM | > 100 µM | > 100 µM | > 100 µM | > 100 µM | > 100 µM | > 100 µM | > 100 µM |  |  |  |  |  |  |  |  |
